The target of data set [1] is T1, rat nNOS (Rattus norvegicus, UniProt P29476). The data set can be described thus: biochemical.
The target in data set [2] is T1, rat nNOS. To be noted: ratio of respective Ki values (eNOS vs rnNOS).
For data set [3], the target named is T2, serotonin 5-HT1A (Homo sapiens, UniProt P08908).
T2 sequence (P08908 1-422): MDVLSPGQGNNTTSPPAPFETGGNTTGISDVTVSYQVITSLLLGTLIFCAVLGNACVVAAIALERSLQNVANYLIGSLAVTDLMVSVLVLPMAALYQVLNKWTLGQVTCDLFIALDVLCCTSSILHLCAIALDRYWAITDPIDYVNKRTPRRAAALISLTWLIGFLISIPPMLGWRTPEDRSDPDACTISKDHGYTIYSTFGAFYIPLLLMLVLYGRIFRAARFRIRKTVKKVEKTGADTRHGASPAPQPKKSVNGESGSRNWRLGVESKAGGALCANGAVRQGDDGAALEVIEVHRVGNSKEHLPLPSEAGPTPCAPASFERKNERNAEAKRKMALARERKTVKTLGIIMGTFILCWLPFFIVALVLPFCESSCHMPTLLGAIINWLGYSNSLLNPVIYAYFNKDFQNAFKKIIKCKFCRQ
Kind of data set: NIMH PDSP CNS receptor radioligand binding.

Data set [4] deals with dopamine D3 receptor (Homo sapiens, UniProt P35462). Kind of data set: NIMH PDSP CNS receptor radioligand binding.
In data set [5] the target is CYP2C19 (Homo sapiens, UniProt P33261). The data set can be described thus: CYP inhibition assay in human liver microsomes. The settings on record: 10 μM. It is filed as in vitro ADME.
In data set [6] the target is CYP2D6 (Homo sapiens, UniProt P10635). The data set can be described thus: CYP inhibition assay in human liver microsomes. It is filed as in vitro ADME. The settings on record: 10 μM.
The target in data set [7] is CYP3A4 (Homo sapiens, UniProt P08684). The data set can be described thus: CYP inhibition assay in human liver microsomes. The format is in vitro ADME. The settings on record: 10 μM.
Data set [8] has as its target serotonin 5-HT2A (Homo sapiens, UniProt P28223). Kind of data set: NIMH PDSP CNS receptor radioligand binding.
For data set [9] the following is noted: cited from earlier work.

T1 sequence (P29476 whole entry): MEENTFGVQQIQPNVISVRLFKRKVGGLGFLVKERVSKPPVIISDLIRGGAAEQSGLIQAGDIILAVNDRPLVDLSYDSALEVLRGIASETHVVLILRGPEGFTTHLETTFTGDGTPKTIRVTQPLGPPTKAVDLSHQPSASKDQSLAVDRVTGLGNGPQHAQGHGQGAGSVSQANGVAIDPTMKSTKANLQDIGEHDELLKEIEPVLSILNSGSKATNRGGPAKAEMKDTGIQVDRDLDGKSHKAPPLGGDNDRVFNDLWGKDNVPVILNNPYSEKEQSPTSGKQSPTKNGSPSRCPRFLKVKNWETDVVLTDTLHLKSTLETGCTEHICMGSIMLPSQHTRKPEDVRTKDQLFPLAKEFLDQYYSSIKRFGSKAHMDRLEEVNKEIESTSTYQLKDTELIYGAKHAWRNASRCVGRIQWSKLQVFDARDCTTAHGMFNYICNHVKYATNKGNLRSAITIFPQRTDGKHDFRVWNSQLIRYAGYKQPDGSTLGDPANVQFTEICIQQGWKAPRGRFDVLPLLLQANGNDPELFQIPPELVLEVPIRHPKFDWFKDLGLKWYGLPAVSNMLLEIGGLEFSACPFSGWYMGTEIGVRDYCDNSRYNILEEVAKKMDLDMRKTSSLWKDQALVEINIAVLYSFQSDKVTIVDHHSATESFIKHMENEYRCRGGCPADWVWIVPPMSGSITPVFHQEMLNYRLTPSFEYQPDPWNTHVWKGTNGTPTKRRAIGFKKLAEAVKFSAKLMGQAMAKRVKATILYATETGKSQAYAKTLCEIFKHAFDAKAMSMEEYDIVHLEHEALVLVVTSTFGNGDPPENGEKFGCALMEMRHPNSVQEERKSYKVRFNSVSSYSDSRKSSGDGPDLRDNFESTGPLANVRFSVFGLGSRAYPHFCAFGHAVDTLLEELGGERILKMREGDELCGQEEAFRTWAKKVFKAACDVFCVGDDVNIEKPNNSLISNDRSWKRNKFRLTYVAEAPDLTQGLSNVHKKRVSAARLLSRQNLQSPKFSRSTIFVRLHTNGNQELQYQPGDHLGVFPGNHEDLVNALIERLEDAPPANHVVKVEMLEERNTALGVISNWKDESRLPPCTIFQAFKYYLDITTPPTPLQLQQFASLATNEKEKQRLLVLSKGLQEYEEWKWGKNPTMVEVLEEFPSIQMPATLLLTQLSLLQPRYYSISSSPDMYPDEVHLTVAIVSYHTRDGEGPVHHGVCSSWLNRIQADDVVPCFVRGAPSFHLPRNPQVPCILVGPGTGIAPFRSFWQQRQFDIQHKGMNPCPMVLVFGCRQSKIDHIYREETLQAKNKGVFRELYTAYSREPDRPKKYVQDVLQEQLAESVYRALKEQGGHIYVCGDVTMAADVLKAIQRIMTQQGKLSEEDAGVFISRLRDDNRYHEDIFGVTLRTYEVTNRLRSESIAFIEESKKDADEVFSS
Sequence of CYP2C19 (P33261 whole entry): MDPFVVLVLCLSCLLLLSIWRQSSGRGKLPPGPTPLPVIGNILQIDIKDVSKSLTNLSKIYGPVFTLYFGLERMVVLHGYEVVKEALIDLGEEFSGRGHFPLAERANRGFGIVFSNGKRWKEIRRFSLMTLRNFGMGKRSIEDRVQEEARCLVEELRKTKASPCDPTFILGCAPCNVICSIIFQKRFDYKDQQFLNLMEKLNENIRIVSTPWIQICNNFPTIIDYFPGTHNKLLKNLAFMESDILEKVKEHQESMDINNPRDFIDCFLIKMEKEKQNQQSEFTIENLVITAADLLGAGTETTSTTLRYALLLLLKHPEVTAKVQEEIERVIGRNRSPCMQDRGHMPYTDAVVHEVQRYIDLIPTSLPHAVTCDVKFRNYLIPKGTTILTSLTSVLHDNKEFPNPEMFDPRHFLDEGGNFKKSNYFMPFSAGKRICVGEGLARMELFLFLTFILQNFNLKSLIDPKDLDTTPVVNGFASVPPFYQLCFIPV
Sequence of dopamine D3 receptor (P35462 whole entry, species assumed): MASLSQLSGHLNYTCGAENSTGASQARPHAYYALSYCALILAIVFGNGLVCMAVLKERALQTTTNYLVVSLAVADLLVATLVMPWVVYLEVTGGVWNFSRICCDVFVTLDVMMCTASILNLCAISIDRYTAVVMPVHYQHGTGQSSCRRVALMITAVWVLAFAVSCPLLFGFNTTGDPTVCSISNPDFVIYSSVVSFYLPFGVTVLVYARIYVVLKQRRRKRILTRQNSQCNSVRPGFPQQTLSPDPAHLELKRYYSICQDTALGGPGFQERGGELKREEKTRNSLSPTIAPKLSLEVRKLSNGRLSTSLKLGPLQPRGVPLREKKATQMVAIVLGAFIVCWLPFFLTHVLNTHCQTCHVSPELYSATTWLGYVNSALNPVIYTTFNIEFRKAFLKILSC
Sequence of CYP2D6 (P10635 whole entry): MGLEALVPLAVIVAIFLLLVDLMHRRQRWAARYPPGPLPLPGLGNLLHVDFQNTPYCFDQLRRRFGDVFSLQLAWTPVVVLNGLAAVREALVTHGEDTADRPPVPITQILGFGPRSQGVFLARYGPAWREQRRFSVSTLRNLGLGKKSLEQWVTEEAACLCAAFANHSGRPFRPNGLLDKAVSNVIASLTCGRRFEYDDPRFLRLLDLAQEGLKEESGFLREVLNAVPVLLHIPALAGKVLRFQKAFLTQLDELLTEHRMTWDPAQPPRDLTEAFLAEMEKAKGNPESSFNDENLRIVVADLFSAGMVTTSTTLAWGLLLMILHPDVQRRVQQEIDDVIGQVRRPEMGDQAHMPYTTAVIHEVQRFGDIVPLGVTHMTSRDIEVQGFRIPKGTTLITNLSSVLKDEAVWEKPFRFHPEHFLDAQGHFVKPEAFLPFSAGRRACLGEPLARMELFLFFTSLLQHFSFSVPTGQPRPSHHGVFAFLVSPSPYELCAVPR
Sequence of CYP3A4 (P08684 whole entry): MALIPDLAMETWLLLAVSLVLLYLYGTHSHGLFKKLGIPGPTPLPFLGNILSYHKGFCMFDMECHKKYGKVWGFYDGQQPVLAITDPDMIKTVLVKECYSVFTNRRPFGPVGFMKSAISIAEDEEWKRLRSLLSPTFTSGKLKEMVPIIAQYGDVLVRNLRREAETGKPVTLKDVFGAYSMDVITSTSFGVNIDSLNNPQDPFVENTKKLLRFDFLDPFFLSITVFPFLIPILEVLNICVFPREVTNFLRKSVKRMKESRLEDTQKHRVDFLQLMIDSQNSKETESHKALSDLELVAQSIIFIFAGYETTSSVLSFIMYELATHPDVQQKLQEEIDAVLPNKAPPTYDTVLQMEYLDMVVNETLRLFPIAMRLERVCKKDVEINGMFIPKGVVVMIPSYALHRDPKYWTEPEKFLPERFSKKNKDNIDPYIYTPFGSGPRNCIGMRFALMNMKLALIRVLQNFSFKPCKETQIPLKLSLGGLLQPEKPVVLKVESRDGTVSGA
Sequence of serotonin 5-HT2A (P28223 whole entry): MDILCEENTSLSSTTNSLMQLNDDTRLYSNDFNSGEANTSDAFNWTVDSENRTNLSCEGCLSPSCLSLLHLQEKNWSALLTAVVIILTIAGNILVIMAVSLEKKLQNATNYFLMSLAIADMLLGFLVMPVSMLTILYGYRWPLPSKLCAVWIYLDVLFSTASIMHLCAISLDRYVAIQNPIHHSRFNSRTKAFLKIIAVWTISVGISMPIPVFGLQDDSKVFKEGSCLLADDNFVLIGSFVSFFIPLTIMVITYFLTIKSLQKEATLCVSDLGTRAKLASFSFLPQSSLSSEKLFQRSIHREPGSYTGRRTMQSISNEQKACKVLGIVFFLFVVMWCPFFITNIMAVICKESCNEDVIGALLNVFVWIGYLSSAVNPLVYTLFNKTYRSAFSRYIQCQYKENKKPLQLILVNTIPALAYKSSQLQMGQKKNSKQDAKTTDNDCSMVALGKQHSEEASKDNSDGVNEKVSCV

As to `Fc1cccc(CCN2CCN(c3ccnc(-n4ccnc4)n3)CC2)c1` [Compound 4, 4-[4-(3-Fluorophenethyl)-1-piperazyl]-2-(1H-imidazol-1-yl)pyrimidine], the Ki in [1] is around 5000 nM.

Regarding `Cl.Fc1cccc(CCNCCNc2ccnc(-n3ccnc3)n2)c1` [Compound 5, N^1-[2-(1H-Imidazol-1-yl)pyrimidin-4-yl]-N^2-(3-fluorophenethyl)ethane-1,2-diamine Trihydrochloride], the selectivity n/e in data set [2] turned out to be 100.

On to `Cl.Fc1cccc(CCCNCCc2ccnc(-n3ccnc3)n2)c1` [Compound 9, N-2-[2-(1H-Imidazol-1-yl)pyrimidin-4-yl]ethyl-3-(3-fluorophenyl)propan-1-amine Dihydrochloride], for which the Ki in [3], in [4] and in [8] was at least 500 nM in each case. Moreover, the “decrease of CYP2C19 activity” value in data set [5] is listed as “more than 70%”. Also, in data set [6], the “decrease of CYP2D6 activity” value is given as “more than 70%”. The “decrease of CYP3A4 activity” value in data set [7] is reported as “more than 70%”.

Regarding `c1c[nH]cn1` [imidazole], the “pKa of conjugate acid” value in [9] is reported as 6.9.
